Results on three molecules are retold here after article PMC10331946, “Characterization of Natural Compounds as Inhibitors of NS1 Endonuclease from Canine Parvovirus Type 2” (Journal of Microbiology and Biotechnology, 2023).

The target of series [1] is T1, CPV-2 NS1 endonuclease (Canine parvovirus type 2, UniProt P12929).
T1 construct: hexahistidine (N); hexahistidine (C); made in house; host or cells: E. coli BL21 (De3) pLysS
Kind of series: FRET nicking assay, inhibition of recombinant CPV-2 NS1 endonuclease. In kind it is biochemical, Canine parvovirus type 2 (CPV-2). As to conditions: for Inhibition (%) at 50 μM: 50 μM inhibitor, 1.25 μg enzyme, 50 mM Tris/HCl pH 7.0, 37°C; for Inhibition (%) at 50 μM / IC50: 0.6 μM FRET substrate, 3 min; for IC50: single compounds, 1.25 μg endonuclease, pH 7.0, 300 mM NaCl, 37°C, curcumin by 4PL, others by linear regression. The text has this:
The fluorescence resonance energy transfer (FRET) substrate, which was composed of an oligonucleotide 5¢-TAA CCT TAC CAT AAG TA↓T CAA TCT GTC TTT-3¢ labeled with carboxyfluorescein (FAM) at the 5¢-terminus and black hole quencher 1 (BHQ1) at the 3¢-terminus as the energy transfer pair, was designed and synthesized by Bioneer Corp. (Korea) (Fig. S1).
cDNA of the CPV-2 NS1 endonuclease gene was synthesized after codon optimization (Genscript, USA) based on the N-terminal amino acid sequence (amino acids 1–277 of the DNA-binding region) of CPV-2 NS1 endonuclease (GenBank Accession No. AAV36764.1) (Fig. S2). The CPV-2 NS1 endonuclease gene was imbedded into the pET-28a (+) vector (Novagen, Germany) with hexahistidine tags at the N- and C-termini. The plasmids were transformed into E. coli BL21 (De3) pLysS (Invitrogen, USA) for expression. The transformed cells were cultured in 1 L of LB containing 30 μg/ml kanamycin at 37°C until the OD600 reached 0.6. Next, protein expression was induced with 1 mM isopropyl β-D-1-thiogalactopyranoside (IPTG) at 24°C for 20 h. Cells were harvested by centrifugation at 12,000 ×g for 25 min and 4°C. The pellet was resuspended in 50 ml 50 mM Tris-HCl buffer (pH 7.0) containing 300 mM NaCl and disrupted by sonication. After centrifugation at 12,000 ×g for 30 min and 4°C, the supernatant was applied to a Ni-NTA agarose column (Qiagen, Germany) and washed with 50 mM Tris-HCl buffer (pH 8.0) containing 300 mM NaCl and 20 mM imidazole. CPV-2 NS1 endonuclease was eluted with 50 mM Tris-HCl buffer (pH 8.0) containing 300 mM NaCl, and 250 mM imidazole, and dialyzed against 50 mM Tris-HCl (pH 7.0) containing 300 mM NaCl at 4°C overnight. The purified protein was stored at −20°C until required.
CPV-2 NS1 endonuclease activity was measured using an FRET substrate as described above. The reaction mixture was composed of 1.25 μg endonuclease and 0.6 μM FRET in 50 mM Tris-HCl buffer (pH 7.0). The reaction was run at 37°C with continuous monitoring of fluorescence for 10 min. Relative fluorescence units (RFUs) were measured using a SpectraMax M3 fluorescence plate reader (Molecular Devices, USA) with an excitation wavelength of 495 nm and an emission wavelength of 517 nm.
Thirty-one compounds, extracted sesame cake, turmeric, and yerba mate were tested for inhibitory effects against CPV-2 NS1 endonuclease. For screening, thirty-one compounds, turmeric, and yerba mate were dissolved in dimethyl sulfoxide (DMSO) to 5 mM or 10 mg/ml as stock solutions. Sesame cake extract (10 mg/ml) was solubilized in water. The reaction was initiated by adding 0.6 μM FRET substrate to a mixture of 50 μM compound and 1.25 μg endonuclease in 50 mM Tris-HCl buffer (pH 7.0) containing 300 mM NaCl. The reaction was run at 37°C for 3 min using a SpectraMax M3 fluorescence plate reader with an excitation wavelength of 495 nm and emission wavelength of 517 nm. Inhibitory activity was calculated using the following equation:
Inhibition activity (%) 100-[(S-S0)÷(C-C0)]×100
where C is RFU of the control (enzyme, buffer, and substrate) after a 3 min reaction, C0 is the RFU of the control at 0 min, S is the RFU of the sample (enzyme, buffer, inhibitor, and substrate) after 3 min, and S0 is the RFU of the sample at 0 min.
We determined the 50% inhibitory concentrations (IC50) of the six natural compounds, extracted turmeric, yerba mate, and sesame cake relative to the inhibitor-free control. The IC50 values of curcumin, and extracted sesame cake were calculated using a four-parameter logistic curve (4PL) using Prism v. 8 software (GraphPad Software Inc., USA). […] 8 software.

In series [2] the test system is bird. Particulars: free curcumin 30 mg/kg of feed, cited from earlier work.
For series [3], the system named is canine. Set-up: method as in Campigotto et al., 34. Particulars: diet containing curcumin; ref Campigotto et al., 34; cited from earlier work.
Series [4] relates to all animals. Also on record: method as in PMID 42087962. As to conditions: cited from earlier work.
The subject of series [5] is beagle dogs. Set-up: method as in Yang et al. (2022), 42. Particulars: dietary supplementation at 2.5 g/kg, ref Yang et al. (2022), 42; cited from earlier work.
Where [6] appears, read: ref Marchiori et al. (2019), 49.

As a reminder, the IC50 is the point on the concentration scale where inhibition reaches its midpoint.

T1 sequence (P12929 1-277): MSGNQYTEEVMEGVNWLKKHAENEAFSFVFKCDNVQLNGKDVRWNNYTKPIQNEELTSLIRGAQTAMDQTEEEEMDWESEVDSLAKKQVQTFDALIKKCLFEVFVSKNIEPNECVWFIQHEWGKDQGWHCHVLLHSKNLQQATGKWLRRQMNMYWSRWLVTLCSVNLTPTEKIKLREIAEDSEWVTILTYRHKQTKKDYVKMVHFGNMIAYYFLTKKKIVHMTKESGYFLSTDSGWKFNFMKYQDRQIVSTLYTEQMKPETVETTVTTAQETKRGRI

Take `COc1cc(/C=C/C(=O)CC(=O)/C=C/c2ccc(O)c(OC)c2)ccc1O` [Curcumin]: in series [1], the “Inhibition (%) at 50 μM” value was 100% and the IC50 is 290 ± 70 nM. The inhibition at 50 µM in series [1] (pH 7, read-out: Inhibition (%) at 50 μM, 50 μM inhibitor, 0.6 μM FRET substrate, 1.25 μg enzyme, 50 mM Tris/HCl pH 7.0, 37°C, 3 min) was over 95%. Further, the “fold higher CPV-2 NS1 endonuclease inhibitory activity than demethoxycurcumin” value in series [1] (ratio of IC50 values) turned out to be 2.17 fold. The “antioxidant capacity versus control group” value in series [2] was “higher antioxidant capacity than the control group”. In addition, in series [2] (setting [6]), the “egg production versus controls” value is given as “higher”; the “egg weight and mass versus controls” value is recorded as “higher”. Moreover, in series [3], the “effect on canine health” value is “enhanced canine health by stimulating the antioxidant system and erythropoiesis”.

As to `O=c1c(-c2ccc(O)cc2)coc2cc(O)ccc12` [Daidzein], the “Inhibition (%) at 50 μM” value in series [1] was 22 ± 12%; in series [1] (listed as daidzein), under 50%.

Consider `O=C(OCC1OC(OC(=O)c2cc(O)c(O)c(OC(=O)c3cc(O)c(O)c(O)c3)c2)C(OC(=O)c2cc(O)c(O)c(OC(=O)c3cc(O)c(O)c(O)c3)c2)C(OC(=O)c2cc(O)c(O)c(OC(=O)c3cc(O)c(O)c(O)c3)c2)C1OC(=O)c1cc(O)c(O)c(OC(=O)c2cc(O)c(O)c(O)c2)c1)c1cc(O)c(O)c(OC(=O)c2cc(O)c(O)c(O)c2)c1` (stereo not shown) [Tannic acid], for which, in series [1], the concentration for half-maximal inhibition (IC50) came to 1180 ± 100 nM. Besides, the “safe proposed maximum level in complete feed” value in series [4] was at most 15 mg/kg. The “effect on environmental stress-induced symptoms” value in series [5] was “relieved environmental stress-induced diarrheal symptoms, inflammatory response, and oxidative stress”.
